Patent US20240269304A1, “BCL-XL INHIBITOR ANTIBODY-DRUG CONJUGATES AND METHODS OF USE THEREOF” (Novartis AG, priority 2020, published 2024)
Read-outs that look alike come from different tables or passages of the source.

Tests used:
NCI-H1650 = test: CellTiter Glo 3D spheroid proliferation/survival, 5 days, NCI-H1650, 0.0005-500 nM (Example 10); format: cell-based, human; conditions: spheroids, 0.0005-500 nM
Method: One target was assessed: EGFR.
The ability of the BCL-xL antibody drug conjugates to inhibit cell proliferation and survival was assessed using the Promega CellTiter-Glo® proliferation assay.
Cell lines were cultured in media that is optimal for their growth at 5% CO2, 37° C. in a tissue culture incubator. Prior to seeding for the proliferation assay, the cells were split at least 2 days before the assay to ensure optimal growth density. […] Cell viability and cell density were determined using a cell counter (Vi-Cell XR Cell Viability Analyzer, Beckman Coulter).
Cells were seeded at a density of 3,000 cells per well in 45 uL of standard growth media. Plates were spun in a centrifuge for 5 minutes and 1,000 RPM. Plates were incubated at 5% CO2, 37° C. for 72 hours in a tissue culture incubator. On the day of dosing, EGFR targeting BCL-xL ADCs were prepared at 1OX in standard growth media. The prepared drug treatments were then added to the cells resulting in final concentrations of 0.0005-500 nM and a final volume of 50 μL per well. Each drug concentration was tested in quadruplets. Plates were incubated at 5% CO2, 37° C. for 5 days in a tissue culture incubator.
Cell viability was assessed through the addition of 40 μL of CellTiter Glo 3D Cell Viability Assay substrate (Promega, cat #G9681), a reagent which lyses cells and measures total adenosine triphosphate (ATP) content. Wells were mixed thoroughly and plates were incubated at room temperature for 30 minutes to stabilize luminescent signals prior to reading using a luminescence reader (EnVision Multilabel Plate Reader, PerkinElmer).
To evaluate the effect of the drug treatments, luminescent counts from wells containing untreated cells (100% viability) were used to normalize treated samples. […] IC50 and Amax values were extrapolated from the resultant curves.

[1] = ADC stability study: % aggregates by SEC after incubation at 37° C. for 168 h; format: physicochemical
Method: Size Exclusion Chromatography: Size exclusion chromatography (SEC) was performed for quality control of each ADCs by measuring monomer percentage of the conjugate. The analysis was performed on analytical column Superdex 200 Increase 5/150 GL (GE Healthcare, 28990945) in isocratic conditions 100% PBS pH7.4 (Sigma Life Science, P3813, 10PAK), flow 0.45 mI/min for 12 minutes. The % aggregate fraction of the conjugate sample was quantified based on the peak area absorbance at 280 nm. Its calculation was based on the ratio between the high molecular weight eluent at 280 nm divided by the sum of peak area absorbance at the same wavelength of the high molecular weight and monomeric eluents multiplied by 100.
Characterization of the exemplary ADCs is summarized in Table 13 (coupling, LC-MS method, OAR, aggregation status, ADO stability and yield). The average OAR values were determined using the above LC-MS methods and the percentage of aggregates was measured by size exclusion chromatography (SEC) during the quality control of the ADO and after the stability study (incubation at 37° C. for 168 h).

H1650 cells = test: CellTiterGlo (CTG) cell viability, 3D, 120 h, H1650 (Example 8); format: cell-based, human
ALL-SIL cells = test: CellTiterGlo (CTG) cell viability, 72 h, ALL-SIL (Example 8); format: cell-based
Method: ALL-SIL cells were cultivated in RPMI supplemented with 20% heat inactivated fetal bovine serum, penicillin (100 IU/ml), streptomycin (100 μg/ml) and L-glutamine (2 mM). Cell lines were cultured at 37° C. in a humidified atmosphere containing 5% CO2. Cells were seeded in 96 well clear bottom plates (96 well clear-bottom, white, Corning reference 3903) and exposed to the payloads or ADCs for 72 h (serially diluted; 9 concentrations each, triplicates). Effects of payloads or ADCs on cell viability were assessed after 3 days of incubation at 37° C./5% CO2 by quantification of cellular ATP levels using CellTiterGlo at 75 μL reagent/well. All the conditions were tested in triplicates. Luminescence was quantified on a multipurpose plate reader. IC50s were calculated using standard four-parametric curve fitting. […] Each experiment was performed at least twice, with results being reproducible.

DND-41 cells = test: CellTiterGlo (CTG) cell viability, 72 h, DND-41 (Example 8); format: cell-based
Method: DND-41 cells were cultivated in RPMI supplemented with 10% heat inactivated fetal bovine serum, penicillin (100 IU/ml), streptomycin (100 μg/ml) and L-glutamine (2 mM). Cell lines were cultured at 37° C. in a humidified atmosphere containing 5% CO2. […] Effects of payloads or ADCs on cell viability were assessed after 3 days of incubation at 37° C./5% CO2 by quantification of cellular ATP levels using CellTiterGlo at 75 μL reagent/well. All the conditions were tested in triplicates. Luminescence was quantified on a multipurpose plate reader. IC50s were calculated using standard four-parametric curve fitting.

ALL-SILL (T-ALL) = test: CellTiter-Glo viability 72 h, single agent or 1/1 combination, ALL-SIL (Example 9); format: cell-based; conditions: single agent or 1/1 combination as labelled
Method: Cell lines were cultured in the media described above at 37° C. in a humidified atmosphere containing 5% CO2. […] Effects of payloads or ADCs on cell viability were assessed after 3 days of incubation at 37° C./5% CO2 by quantification of cellular ATP levels using CellTiter-Glo reagent (Promega Ref: G7571) at 75 μL reagent/well. All the conditions were tested in triplicates. Luminescence was quantified on a multipurpose plate reader. IC50s were calculated using standard four-parametric curve fitting.

[2] = H1650 3D, experiment n1, read-out: H1650 3D CTG IC50 n1
[3] = H1650 3D, experiment n2, read-out: H1650 3D CTG IC50 n2
[4] = H1650 3D, mean of n1 and n2, read-out: H1650 3D CTG IC50 Mean of n1 and n2
[5] = experiment n1, read-out: ALLSIL CTG 72 h IC50 nM n1
[6] = experiment n2, read-out: ALLSIL CTG 72 h IC50 nM n2
[7] = mean of n1 and n2, read-out: ALLSIL CTG 72 h IC50 nM Mean of n1 and n2
[8] = experiment n1, read-out: DND41 CTG 72 h IC50 nM n1
[9] = experiment n2, read-out: DND41 CTG 72 h IC50 nM n2
[10] = mean of n1 and n2, read-out: DND41 CTG 72 h IC50 nM Mean of n1 and n2
[11] = n1, read-out: ALL-SILL (T-ALL) IC50 n1
[12] = n2, read-out: ALL-SILL (T-ALL) IC50 n2

| Compound | Stab w1 +37° C. % Agg (by SEC) [1] [%] | IC50 (ALL-SIL cells; [5]) [nM] | IC50 (ALL-SIL cells; [6]) [nM] | IC50 (ALL-SIL cells; [7]) [nM] | IC50 (DND-41 cells; [8]) [nM] | IC50 (DND-41 cells; [9]) [nM] | IC50 (DND-41 cells; [10]) [nM] | also measured |
| --- | --- | --- | --- | --- | --- | --- | --- | --- |
| COCCOCCOCCOCCOCCOCCOCCOCCn1cc(COC(=O)N(Cc2cn(CCOCCOCCOCCOCCOCCOCCOCCOC)nn2)Cc2cc(NC(=O)[C@H](CCCNC(N)=O)NC(=O)[C@@H](NC(=O)CCOCCN3C(=O)CC(C)C3=O)C(C)C)ccc2C[N+](C)(C)CC#Cc2ccc(OCCCc3sc(N4CCCc5c4nnc(Nc4nc6ccccc6s4)c5C)nc3C(=O)O)c(F)c2)nn1 (mixture of isomers) [EGFR1-L1A-P1] | – | – | – | – | – | – | – | IC50 (NCI-H1650): < 0.686 nM |
| COCCOCCOCCOCCOCCOCCOCCOCCn1cc(COC(=O)N(Cc2cn(CCOCCOCCOCCOCCOCCOCCOCCOC)nn2)Cc2cc(NC(=O)[C@H](CCCNC(N)=O)NC(=O)[C@@H](NC(=O)CCOCCN3C(=O)CC(C)C3=O)C(C)C)ccc2C[N+](C)(C)CC#Cc2ccc(OCCCc3sc(N(C)c4cc(C)c(Nc5nc6ccccc6s5)nn4)nc3C(=O)O)c(F)c2)nn1 (mixture of isomers) [EGFR1-L1A-P2] | – | – | – | – | – | – | – | IC50 (NCI-H1650): < 6.17 nM |
| C=C(C)CCCC[C@](C)(CC(=C)[C@@](C)(CC(=C)CCCCCC1C(=C)CC(C)C1=C)C(C)C)C(=C)Cc1ccc(CCC(=C)C2CCC(CCC[C@]34C[C@]5(C)C[C@](C)(C3)C[C@@](CC3C=CC(c6ccc(C7CCCc8c7ccc(CC7=Cc9ccccc9C7)c8C)cc6C(=C)C)=C3C)(C5)C4)CC2)cc1 (stereo partly drawn) [Ab C - L9C-P31] | 6 | – | – | – | – | – | – | IC50 (H1650 cells; [2]): 0.07 nM; IC50 (H1650 cells; [3]): 0.1 nM; IC50 (H1650 cells; [4]): 0.09 nM |
| Cc1c(Nc2nc3ccccc3s2)nnc2c1CCCN2c1nc(C(=O)O)c(CCCOc2ccc(C#CCN(C)C(=O)OCc3ccc(NC(=O)[C@H](CCCNC(N)=O)NC(=O)[C@@H](NC(=O)CCOCCN4C(=O)CC(C)C4=O)C(C)C)cc3S(=O)(=O)O)cc2F)s1 (stereo partly drawn) [Ab C - L27C-P3] | 17 | – | – | – | – | – | – | IC50 (H1650 cells; [2]): 1.4 nM; IC50 (H1650 cells; [3]): 2.6 nM; IC50 (H1650 cells; [4]): 2 nM |
| Cc1cc(N(C)c2nc(C(=O)O)c(CCCOc3ccc(C#CCN(C)C(=O)OCc4ccc(NC(=O)[C@H](C)NC(=O)[C@@H](NC(=O)CCOCCN5C(=O)CC(C)C5=O)C(C)C)cc4CC[C@@H]4O[C@H](C(=O)O)[C@@H](O)[C@H](O)[C@H]4O)cc3F)s2)nnc1Nc1nc2ccccc2s1 (stereo partly drawn) [Ab C -L106C-P7] | 29 | – | – | – | – | – | – | IC50 (H1650 cells; [2]): 1.8 nM; IC50 (H1650 cells; [3]): 1.5 nM; IC50 (H1650 cells; [4]): 1.65 nM |
| CC(=O)C1=C(CCCOc2ccc(C#CCC(C)(C)Cc3ccc(NC(=O)[C@H](CCCNC(N)=O)NC(=O)[C@@H](NC(=O)CCOCCN4C(=O)CC(C)C4=O)C(C)C)cc3)cc2C)CC(C2CCCC3C2=NN=C(NC2=Nc4ccccc4C2)C3C)=C1 (stereo partly drawn) [Ab D - L9A-P1] | 8 | 0.025 | 0.037 | 0.031 | 0.16 | 0.14 | 0.15 | – |
| Cc1c(Nc2nc3ccccc3s2)nnc2c1CCCN2c1nc(C(=O)O)c(CCCOc2ccc(C#CCN3CCN(C(=O)OCc4ccc(NC(=O)[C@H](CCCNC(N)=O)NC(=O)[C@@H](NC(=O)CCOCCN5C(=O)CC(C)C5=O)C(C)C)cc4)CC3)cc2F)s1 (stereo partly drawn) [Ab D - L9C-P17] | 6 | 0.006 | 0.01 | 0.008 | 2.1 | 0.38 | 1.24 | – |
| Cc1cc(N(CCCO)C2=NC(C(=O)O)=C(CCCOc3ccc(C#CCN(C)C(=O)OCc4ccc(NC(=O)[C@](C)(CCCNC(N)=O)NC(=O)[C@@H](NC(=O)CCOCCN5C(=O)CC(C)C5=O)C(C)C)cc4)cc3F)C2)nnc1Nc1nc2ccccc2s1 (stereo partly drawn) [Ab D - L9C-P45] | 2 | 0.36 | 0.38 | 0.37 | > 100 | > 100 | > 100 | – |
| Cc1cc(N(CCCC(O)CO)C2=NC(C(=O)O)=C(CCCOc3ccc(C#CCN(C)C(=O)OCc4ccc(NC(=O)[C@H](CCCNC(N)=O)NC(=O)[C@@H](NC(=O)CCOCCN5C(=O)CC(C)C5=O)C(C)C)cc4)cc3F)C2)nnc1Nc1nc2ccccc2s1 (stereo partly drawn) [Ab D - L9C-P46] | 6 | 0.18 | 0.2 | 0.19 | > 100 | > 100 | > 100 | – |
| C=C(C)CCCC[C@](C)(NC(=O)[C@@](C)(NC(=O)CCOCCN1C(=O)CC(C)C1=O)C(C)C)C(=O)Nc1ccc(CC(C)(C)CC#Cc2ccc(OCCCC3=C(C(C)=O)N=C(N4CCCc5c4nnc(Oc4nc6ccccc6o4)c5C)C3)c(C)c2)c(S(=O)(=O)O)c1 (stereo partly drawn) [Ab D - L27A-P1] | 9 | 0.028 | 0.018 | 0.023 | 0.21 | 0.28 | 0.245 | – |
| Cc1c(Nc2nc3ccccc3s2)nnc2c1CCCN2c1ccc(-c2cnn(C[C@]34C[C@]5(C)C[C@](C)(C3)C[C@@](OCCN3CCCCCC3)(C5)C4)c2C)c(C(=O)O)n1 [P33, 3-[1-[[3-[2-(azepan-1-yl)ethoxy]-5,7-dimethyl-1-adamantyl]methyl]-5-methyl-pyrazol-4-yl]-6-[3-(1,3-benzothiazol-2-ylamino)-4-methyl-6,7-dihydro-5H-pyrido[2,3-c]pyridazin-8-yl]pyridine-2-carboxylic acid] | – | – | – | – | – | – | – | IC50 (H1650 cells; Homo sapiens, NCI-H1650, H1650 3D, experiment n1, read-out: H1650 3D CTG IC50 n1): 0.89 nM; IC50 (H1650 cells; Homo sapiens, NCI-H1650, H1650 3D, experiment n2, read-out: H1650 3D CTG IC50 n2): 0.57 nM; IC50 (H1650 cells; Homo sapiens, NCI-H1650, H1650 3D, mean of n1 and n2, read-out: H1650 3D CTG IC50 Mean of n1 and n2): 0.73 nM; IC50 (ALL-SILL (T-ALL); mean, read-out: ALL-SILL (T-ALL) IC50 mean): 0.145 nM; IC50 (ALL-SILL (T-ALL); [11]): 0.1 nM; IC50 (ALL-SILL (T-ALL); [12]): 0.19 nM |
| Cc1c(Nc2nc3ccccc3s2)nnc2c1CCCN2c1ccc(-c2cnn(CC34CC5(C)CC(C)(CC(CCCNCCCO)(C5)C3)C4)c2C)c(C(=O)O)n1 [P40, 6-[3-(1,3-benzothiazol-2-ylamino)-4-methyl-6,7-dihydro-5H-pyrido[2,3-c]pyridazin-8-yl]-3-[1-[[3-[3-(3-hydroxypropylamino)propyl]-5,7-dimethyl-1-adamantyl]methyl]-5-methyl-pyrazol-4-yl]pyridine-2-carboxylic acid] | – | – | – | – | – | – | – | IC50 (ALL-SILL (T-ALL); [11]): 1.06 nM; IC50 (ALL-SILL (T-ALL); [12]): 1.26 nM |
